Values after ≈ are worked out from the molar mass of the structure shown. Counter-ions that a name gives are not always drawn.
Tests used:
Gram-positive bacteria = assay: antibacterial activity, statement in words; format: cell-based; details: from Table 1
Description: (§1) *Determined by the standard method of the Japan Society of Chemoterapy:
(§2) (MuellerHinton Broth medium), 10^6 /ml of bacteria were seeded and
(§3) incubated at 37° C. for 18 hours.

Ps. aeruginosa, 32121 = assay: MIC, standard method of the Japan Society of Chemotherapy (Mueller-Hinton Broth medium); format: cell-based; details: Pseudomonas aeruginosa, 10^6 /ml of bacteria, 37° C., 18 hours
Description: as §1, §2, §3

Ps. aeruginosa, 32233 = assay: as above; format: cell-based; details: Pseudomonas aeruginosa, 10^6 /ml of bacteria, 37° C., 18 hours
Description: as §1, §2, §3

B. subtilis, ATCC-6633 = assay: as above; format: cell-based; details: Bacillus subtilis, ATCC6633, 10^6 /ml of bacteria, 37° C., 18 hours
Description: as §1, §2, §3

S. epidermidis, 56500 = assay: as above; format: cell-based; details: Staphylococcus epidermidis, 10^6 /ml of bacteria, 37° C., 18 hours
Description: as §1, §2, §3

Str. pyogenes, G-36 = assay: as above; format: cell-based; details: Streptococcus pyogenes, G36, 10^6 /ml of bacteria, 37° C., 18 hours
Description: as §1, §2, §3

[1] = system: Str. faecalis, ATCC-19433; assay: as above; format: cell-based; details: Enterococcus faecalis, ATCC19433, 10^6 /ml of bacteria, 37° C., 18 hours
Description: as §1, §2, §3

Sh. flexneri, 2a, 5503 = assay: as above; format: cell-based; details: Shigella flexneri, 10^6 /ml of bacteria, 37° C., 18 hours
Description: as §1, §2, §3

Ent. cloacae, 03400 = assay: as above; format: cell-based; details: Enterobacter cloacae, 10^6 /ml of bacteria, 37° C., 18 hours
Description: as §1, §2, §3

Ser. marcescens, 10104 = assay: as above; format: cell-based; details: Serratia marcescens, 10^6 /ml of bacteria, 37° C., 18 hours
Description: as §1, §2, §3

K. pneumoniae, type 1 = assay: as above; format: cell-based; details: Klebsiella pneumoniae, TYPE1, 10^6 /ml of bacteria, 37° C., 18 hours
Description: as §1, §2, §3

Ps. aeruginosa, 32122 = assay: as above; format: cell-based; details: Pseudomonas aeruginosa, 10^6 /ml of bacteria, 37° C., 18 hours
Description: as §1, §2, §3

Ps. aeruginosa, 32234 = assay: as above; format: cell-based; details: Pseudomonas aeruginosa, 10^6 /ml of bacteria, 37° C., 18 hours
Description: as §1, §2, §3

Pr. vulgaris, 08602 = assay: as above; format: cell-based; details: Proteus vulgaris, 10^6 /ml of bacteria, 37° C., 18 hours
Description: as §1, §2, §3

Ps. aeruginosa, 32104 = assay: as above; format: cell-based; details: Pseudomonas aeruginosa, 10^6 /ml of bacteria, 37° C., 18 hours
Description: as §1, §2, §3

Pr. mirabilis, IFO-3849 = assay: as above; format: cell-based; details: Proteus mirabilis, IFO3849, 10^6 /ml of bacteria, 37° C., 18 hours
Description: as §1, §2, §3

E. coli, NIHJ = assay: as above; format: cell-based; details: Escherichia coli, 10^6 /ml of bacteria, 37° C., 18 hours
Description: as §1, §2, §3

S. aureus, 209 P = assay: as above; format: cell-based; details: Staphylococcus aureus, 10^6 /ml of bacteria, 37° C., 18 hours
Description: as §1, §2, §3

[2] = acute toxicity (LD 50) in mice (i.v.); details: mouse, in vivo, iv
Pseudomonas aeruginosa = assay: antibacterial activity, statement in words; format: cell-based; details: from Table 1
Description: as §1, §2, §3

SMILES	antibacterial activity against Gram-positive bacteria (Gram-positive bacteria)	MIC (Ps. aeruginosa, 32121) [µg/mL]	MIC (Ps. aeruginosa, 32233) [µg/mL]	MIC (B. subtilis, ATCC-6633) [µg/mL]	MIC (S. epidermidis, 56500) [µg/mL]	MIC (Str. pyogenes, G-36) [µg/mL]	MIC [1] [µg/mL]	MIC (Sh. flexneri, 2a, 5503) [µg/mL]	MIC (Ent. cloacae, 03400) [µg/mL]	MIC (Ser. marcescens, 10104) [µg/mL]	MIC (K. pneumoniae, type 1) [µg/mL]	MIC (Ps. aeruginosa, 32122) [µg/mL]	MIC (Ps. aeruginosa, 32234) [µg/mL]	MIC (Pr. vulgaris, 08602) [µg/mL]	MIC (Ps. aeruginosa, 32104) [µg/mL]	MIC (Pr. mirabilis, IFO-3849) [µg/mL]	MIC (E. coli, NIHJ) [µg/mL]	MIC (S. aureus, 209 P) [µg/mL]	LD50 [2] [mg/kg]	antibacterial activity against Pseudomonas aeruginosa (Pseudomonas aeruginosa)
C=C1COc2c(N3CCC(O)C3)c(F)cc3c(=O)c(C(=O)O)cn1c23 (centres unmarked) [Ia, 9-fluoro-10-(3-hydroxy-1-pyrrolidnyl)-3-methylene-7-oxo-2,3-dihydro-7H-pyrido(1,2,3-de)-1,4-benzoxazine-6-carboxylic acid]	very strong antibacterial activity	0.19 (≈ 0.549 µM)	0.78 (≈ 2.25 µM)	≤ 0.0063	0.19 (≈ 0.549 µM)	0.78 (≈ 2.25 µM)	0.39 (≈ 1.13 µM)	0.025 (≈ 0.0722 µM)	0.05 (≈ 0.144 µM)	0.1 (≈ 0.289 µM)	0.19 (≈ 0.549 µM)	0.78 (≈ 2.25 µM)	0.78 (≈ 2.25 µM)	0.025 (≈ 0.0722 µM)	0.78 (≈ 2.25 µM)	0.05 (≈ 0.144 µM)	0.0125 (≈ 0.0361 µM)	0.05 (≈ 0.144 µM)	–	–
C=C1COc2c(N3CCC(O)C3)c(F)cc3c(=O)c(C(=O)O)cn1c23 (centres unmarked) [Ia, sodium salt]	–	–	–	–	–	–	–	–	–	–	–	–	–	–	–	–	–	–	333	–
C=C1COc2c(N3CCC(N)C3)c(F)cc3c(=O)c(C(=O)O)cn1c23 (centres unmarked) [Ib, 10-(3-amino-1-pyrrolidinyl)-9-fluoro-3-methylene-7-oxo-2,3-dihydro-7H-pyrido(1,2,3-de)-1,4-benzoxazine-6-carboxylic acid]	–	0.05 (≈ 0.145 µM)	0.19 (≈ 0.55 µM)	0.05 (≈ 0.145 µM)	0.39 (≈ 1.13 µM)	0.78 (≈ 2.26 µM)	0.78 (≈ 2.26 µM)	0.0125 (≈ 0.0362 µM)	0.025 (≈ 0.0724 µM)	0.05 (≈ 0.145 µM)	0.05 (≈ 0.145 µM)	0.1 (≈ 0.29 µM)	0.1 (≈ 0.29 µM)	0.025 (≈ 0.0724 µM)	0.1 (≈ 0.29 µM)	0.025 (≈ 0.0724 µM)	0.025 (≈ 0.0724 µM)	0.1 (≈ 0.29 µM)	–	very strong antibacterial activity
C=C1COc2c(N3CCC(N)C3)c(F)cc3c(=O)c(C(=O)O)cn1c23 (centres unmarked) [Ib, methanesulfonic acid addition salt]	–	–	–	–	–	–	–	–	–	–	–	–	–	–	–	–	–	–	> 320	–

Reference: patent publication US4539401A, “Pyridobenzoxazine derivatives useful as antibacterial agents” (Daiichi Seiyaku Co., Ltd., priority 1982, dated 1985)
